Assay results published in US7838539B2, “Nicotine receptor agonists in stem cell and progenitor cell recruitment” (priority 1999, dated 2010).
Like-named read-outs stand apart in the source and are kept apart here.

How the values were obtained:
[1] = test system: fibrovascular growth into the disc (index of angiogenesis); experiment: Disc angiogenesis system (DAS); assay type: in vivo, C57BL/6J mice; settings: for effect on nicotine-induced fibrovascular growth: oral indomethacin 20 mcg/ml or LNNA 6 mg/ml; for angiogenesis in comparison to vehicle: agent in disc pellet: bFGF 20 mcg, Del-1 0.2 M, nicotine 10^-6 M
From the text: To study whether nicotine induces angiogenesis in vivo, we employed the disc angiogenesis system (DAS) (Kowalski et al. (1992) Exp Mol Pathol 56(1):1-19; Fajardo et al. (1998) Lab Invest 58:718-7244).
Preparation of the disc The DAS consisted of a disc (11 mm in diameter and 1 mm thickness) made of a polyvinyl alcohol sponge (Kanebo PVA, Rippey Co., Santa Clara, Calif.). Both sides were covered with nitrocellulose cell-impermeable filters (Millipore filters, 0.45 μm in pore diameter, Millipore, SF, Calif.) of the same diameter as the sponge disc, fixed to the sponge using Millipore glue #1 (xx70000.00, Millipore). As a result, cells (and thus vessels) could penetrate or exit only through the rim of the disc (Kowalski et al. (1992) Exp Mol Pathol 56(1):1-19; Fajardo et al. (1998) Lab Invest 58:718-7244).
In order to study the local effect of nicotine on angiogenesis, nicotine was placed in a pellet which was added directly to the disc. Briefly, a 1.5-mm core (pellet) was cut from the disc center. Both the pellets and discs were sterilized prior to assembly in a laminar flow hood. The pellet was loaded with up to 20 mcl (μl) of the nicotine solution and subsequently air-dried. We placed in the disc pellets with either vehicle (PBS, Sigma, Chemical Co., St Louis, Mo., n=5) or nicotine (10^-6 M, Aldrich Chemical Company, Milwaukee, Wis., n=5) to study the effects of locally administered nicotine. For comparison, in some cases basic fibroblast growth factor (bFGF; 20 mcg) or Del-1 protein (0.2 M) was added to the pellet, rather than nicotine. Both bFGF and Del-1 are known to induce angiogenesis. The pellet was then coated with ethylene-vinyl acetate co-polymer (Elvax, Dupont, Chemcentral Corp., Chicago, Ill.) which would permit slow release of the nicotine from the pellet into the disc. The pellet was then re-inserted into the disc before sealing the disc with the millipore filters.
To study the systemic effects of nicotine, in some cases the animals were administered nicotine in their drinking water (see below).
Implantation of the disc The mice were anesthetized with 4% chloralhydrate [intraperitoneal administration (i.p.), 0.1 cc/10 g body weight]. The flanks and posterior surface of the thorax were shaved and cleaned with saturated 70% isopropyl alcohol. A 2-cm incision was made in the skin of the flank contra-lateral to the implantation site. Blunt dissection through the subcutaneous tissue produced a channel into which the saline moistened disc was inserted. The skin was closed with 5.0 silk suture (Kowalski et al. (1992) Exp Mol Pathol 56(1):1-19; Fajardo et al. (1998) Lab Invest 58:718-7244).
Disc removal and preparation Two weeks after disc implantation, the mice were sacrificed with an overdose of 4% chloral hydrate (i.p.) and cervical dislocation. A careful incision was made next to the skin overlying the implanted disc, and the disc was gently removed from the implantation site. Attached tissue was carefully detached from the disc. After removing the disc, one filter was separated from the disc. Discs were then fixed in 10% formalin and embedded flat in paraffin. Subsequently, 5 μm sections were made in a plane through the center of the disc and parallel to the disc surface.
Quantitation of results The disc sections were stained with H&E for light microscopy and histomorphometric measurement of radial growth, and stained with toluidine blue for quantitative determination of total area of fibrovascular growth. Using a video microscope and a computer assisted digital image analysis system (NIH Image 1.59b9), the entire area of fibrovascular growth in the toluidine blue stained disc was calculated and expressed in mm^2. As described in a previous study, total fibrovascular growth area is directly proportional to the total area of the disc occupied by blood vessels (Kowalski et al. (1992) Exp Mol Pathol 56(1):1-19; Fajardo et al. (1998) Lab Invest 58:718-7244).

[2] = test system: capillary density in hindlimb muscle
Experimental: Mice were anesthetized with 4% chloral hydrate [intraperitoneal administration (i.p.), 0.1 cc/10 g body weight). The medial surface of both hind limbs were shaved and then cleaned with betadine solution. A 1.5-cm longitudinal incision was performed, extending from the knee to the inguinal ligament. Through this incision, the superficial femoral artery was dissected free along its length. After the distal ends of both the external iliac and superficial femoral arteries were ligated with 7.0 (Ethicon), complete excision of the femoral artery was performed. An additional set of mice underwent sham operation. The incisions were then closed with discontinuous stitches of 5.0 silk suture (Ethicon). Ampicillin (1 mg/10 gm body weight) intraperitoneal injection was administered after surgical procedure.
Tissue Preparation. Three weeks after surgery, mice were euthanized with an overdose of 4% chloral hydrate (i.p) and cervical dislocation, and the adductor and semimembranous muscles were collected for capillary density assessment. Briefly, a longitudinal incision in the medial thigh was made to expose the entire hindlimb muscle. The adductor and semimembranous muscles were removed and immediately frozen in OCT. Subsequently, sections 5 μm were taken from the mid-region of each muscle in a transverse orientation. The sections were air dried and fixed in acetone.
Capillary Densitometry. Immunohistochemistry was performed using an alkaline phosphatase assay to identify the endothelial cells. An eosin counterstain was used to differentiate myocytes. Capillaries and myocytes were identified and counted using light microscopy (20×). For each section, four different fields were selected and the total number of capillaries and myocytes per field determined. These values were averaged to provide a determination of capillary density for each experimental limb. To ensure that value for capillary density was not overestimated due to muscle atrophy, or underestimated due to interstitial edema, capillary density was expressed as a ratio of capillaries to myocytes present in the same field.
Daily intramuscular injections of nicotine solution or vehicle were administered (50 μl) for a period of three weeks.

hematopoietic stem cells = settings: 100 μg/ml in drinking water, 6 weeks
Experimental: (§1) Mice (C57B16j) were given solution containing vehicle (0.4% saccharine in distilled water) or nicotine (100 μg/ml) ad libitum in their drinking water. After 6 weeks, peripheral blood, bone marrow and spleen were harvested. Cell counts were obtained in the blood, spleen and bone marrow, and bone marrow cells were isolated for fluorescent activated cell sorting (FACS). To detect hematopoietic stem cells (HSCs), fluorescently labeled antibodies directed against the following antigens were used: Lineage antigens (CD3,4,5, and 8; B220; Gr1, Mac1 and Ter119), cKit, Sca 1, and Flk2. HSCs were conventionally defined as Lin−, cKit+, Sca1+, and […]. All cells were stained with PI (propidium iodide) to separate live from dead cells.

in vivo = settings: C57B16j, mouse, plasma, oral, 100 μg/ml in drinking water
Experimental: as §1

[3] = test system: endothelial progenitor cells (EPCs); settings: nicotine 0.1 g/L drinking water, 3 weeks after ischemia
From the text: In order to further examine the role of nicotine in induction of angiogenesis, the recruitment of endothelial progenitor cells was studied.
Parabiotic mouse pairs were created to investigate the mobilization and incorporation of precursors to vessel formation in normal and ischemic conditions using a hind limb ischemia model of angiogenesis (as described above), and the effect of nicotine. The parabiotic partners were selected so that they shared all major histocompatibility antigens, and were therefore free of immunological barriers to cell migration and angiogenesis. Assaying for genetic markers unique to one animal of the pair (e.g., the Y chromosome where the pair is made up of a female mouse and a male mouse) provides for unambiguous cell tracking between the mice. The model is further optimized by the use of a second genetic marker to differential the individuals (e.g., a transgene present in one partner and not the other), thus increasing the sensitivity and the accuracy of the identification of the origin of single cells. […]

[4] = highest intramuscular dose (3.2 μg/kg daily, three weeks)

NC(=NCCC[C@H](N)C(=O)O)N[N+](=O)[O-] [LNNA, L, nitro-arginine]
effect on nicotine-induced fibrovascular growth ([1]; local nicotine in disc): blocked
effect on nicotine-induced fibrovascular growth ([1]; systemic nicotine): blocked

COc1ccc2c(c1)c(CC(=O)O)c(C)n2C(=O)c1ccc(Cl)cc1 [indomethacin]
effect on nicotine-induced fibrovascular growth ([1]; local nicotine in disc): blocked
effect on nicotine-induced fibrovascular growth ([1]; systemic nicotine): blocked

CN1CCC[C@H]1c1cccnc1 [nicotine, S-3-(1-methyl-2-pyrrolidinyl)pyridine]
angiogenesis in comparison to vehicle [1]: increased angiogenesis to the same degree
angiogenesis with systemic nicotine compared with locally administered bFGF and Del-1 ([1]; systemic nicotine in drinking water): enhanced angiogenesis to a much greater degree
angiogenic effect of systemic compared with local nicotine administration ([1]; systemic versus local nicotine): greater than local nicotine administration
capillary density in the ischemic limb ([2]; 0.03 μg/kg intramuscular daily for three weeks, vehicle control 0.35): 0.67 capillaries/myocyte
angiogenic effect, dose dependence ([2]; higher intramuscular doses): less angiogenesis is observed
angiogenesis in the ischemic limb [2, 4]: angiogenesis was not increased
toxicity at injection site [2, 4]: some toxicity was observed, with evidence of interstitial edema and myocyte necrosis
angiogenic effect, dose dependence ([2]; intermediate intramuscular doses): greatest effect
angiogenic effect in non-ischemic hindlimbs ([2]; intramuscular nicotine in the ischemic limb, untreated non-ischemic limb): no angiogenic effect was detected
appearance of mice at the time of sacrifice (hematopoietic stem cells): appeared healthy
cellularity of the bone marrow (hematopoietic stem cells): increased
cellularity of the spleen (hematopoietic stem cells): increased
peripheral white blood cell count (hematopoietic stem cells): elevated
hematopoietic stem cells (kit/sca+ cells) in bone marrow (hematopoietic stem cells; FACS): significant increase
long term HSCs (self-renewing cells) in bone marrow (hematopoietic stem cells; FACS): equal increases
short term HSCs in bone marrow (hematopoietic stem cells; FACS): an increase
concentration at 6 weeks (in vivo): 87 ng/mL
number of vessels [3]: significant increase
percentage of vessels that incorporated EPC ([3]; saline group 1.6%, P<0.001): 7.3%

bFGF: basic fibroblast growth factor, known to induce angiogenesis; comparison agent in the disc pellet
angiogenesis in comparison to vehicle [1]: increased angiogenesis to the same degree

B1: Del1: Del-1 protein, known to induce angiogenesis; comparison agent in the disc pellet (protein, UniProt O43854 24-480, looked up)
EGF-like repeat and discoidin …: DICDPNPCENGGICLPGLADGSFSCECPDGFTDPNCSSVVEVASDEEEPTSAGPCTPNPCHNGGTCEISEAYRGDTFIGYVCKCPRGFNGIHCQHNINECEVEPCKNGGICTDLVANYSCECPGEFMGRNCQYKCSGPLGIEGGIISNQQITASSTHRALFGLQKWYPYYARLNKKGLINAWTAAENDRWPWIQINLQRKMRVTGVITQGAKRIGSPEYIKSYKIAYSNDGKTWAMYKVKGTNEDMVFRGNIDNNTPYANSFTPPIKAQYVRLYPQVCRRHCTLRMELLGCELSGCSEPLGMKSGHIQDYQITASSIFRTLNMDMFTWEPRKARLDKQGKVNAWTSGHNDQSQWLQVDLLVPTKVTGIITQGAKDFGHVQFVGSYKLAYSNDGEHWTVYQDEKQRKDKVFQGNFDNDTHRKNVIDPPIYARHIRILPWSWYGRITLRSELLGCTEEE
angiogenesis in comparison to vehicle [1]: increased angiogenesis to the same degree
